From ChEMBL document CHEMBL4376831, “Enhancing the Cell Permeability of Stapled Peptides with a Cyclic Cell-Penetrating Peptide” (J Med Chem, 2019) come the findings set out here.

Molecules are shown by their SMILES. Residue numbers refer to the chain shown, from its start. The source made the active and inactive calls. The calls are words filed in the database; no cut-off is given here. *1 amine or outer side, *2 acyl side, *3 side chain or, on linkers, in order; H or OH if unused. Where a SMILES comes first, the peptide text is derived from it. Bridges are numbered along the chain shown (N, C = ends). Roman numbers before positions name the chains, in order. [ ]: non-standard residue; d: D form. The star is where a group is joined. X1 = O=C(O)c1cc(C(=O)*)ccc1-c1c2ccc(=O)cc-2oc2cc(O)ccc12; 2Nal = N[C@@H](Cc1ccc2ccccc2c1)C(=O)O; mXylylene = c1cc(C[*:1])cc(C[*:2])c1; Dap = NC[C@H](N)C(=O)O; AEEA = NCCOCCOCC(=O)O

For data set [1], the system named is HeLa. The experiment in a line: Cytotoxicity against human HeLa cells incubated for 72 hrs using FAM-labeled compound by MTT assay. Type of data set: cell-based.
For data set [2], the target named is E3 ubiquitin-protein ligase Mdm2 (Homo sapiens, UniProt Q00987). The experiment in a line: Displacement of TMR-labelled PDI from human GST tagged MDM2 (1 to 139 residues) expressed in Escherichia coli BL21 (DE3) cells preincuabted for 1 hr with TMR-labelled PDI followed by compound addition and measured after 1 hr by fluorescence polarization assay.
E3 ubiquitin-protein ligase Mdm2, sequence (Q00987 whole entry, the tested form may be a part): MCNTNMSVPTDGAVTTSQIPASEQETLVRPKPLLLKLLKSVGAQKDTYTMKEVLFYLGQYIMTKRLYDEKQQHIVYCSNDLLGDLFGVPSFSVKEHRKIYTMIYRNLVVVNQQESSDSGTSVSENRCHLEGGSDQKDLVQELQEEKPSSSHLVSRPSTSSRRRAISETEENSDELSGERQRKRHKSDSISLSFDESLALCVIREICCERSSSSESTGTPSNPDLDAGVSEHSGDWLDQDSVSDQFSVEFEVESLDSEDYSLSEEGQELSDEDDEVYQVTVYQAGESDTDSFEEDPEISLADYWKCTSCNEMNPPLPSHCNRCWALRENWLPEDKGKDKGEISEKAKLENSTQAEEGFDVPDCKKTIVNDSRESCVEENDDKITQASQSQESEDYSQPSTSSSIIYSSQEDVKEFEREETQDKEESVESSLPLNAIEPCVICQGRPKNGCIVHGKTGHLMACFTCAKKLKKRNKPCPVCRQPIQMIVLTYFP
The test system of data set [3] is HeLa. The experiment in a line: Induction of cell membrane disruption in human HeLa cells incubated for 4 hrs using FAM-labeled compound by LDH assay. The class given is cell-based.
The next data set relates to SJSA-1. The settings on record: Homo sapiens.
The target of data set [4] is T1, Catenin beta-1 (Homo sapiens) (UniProt P35222).
T1 sequence (whole entry): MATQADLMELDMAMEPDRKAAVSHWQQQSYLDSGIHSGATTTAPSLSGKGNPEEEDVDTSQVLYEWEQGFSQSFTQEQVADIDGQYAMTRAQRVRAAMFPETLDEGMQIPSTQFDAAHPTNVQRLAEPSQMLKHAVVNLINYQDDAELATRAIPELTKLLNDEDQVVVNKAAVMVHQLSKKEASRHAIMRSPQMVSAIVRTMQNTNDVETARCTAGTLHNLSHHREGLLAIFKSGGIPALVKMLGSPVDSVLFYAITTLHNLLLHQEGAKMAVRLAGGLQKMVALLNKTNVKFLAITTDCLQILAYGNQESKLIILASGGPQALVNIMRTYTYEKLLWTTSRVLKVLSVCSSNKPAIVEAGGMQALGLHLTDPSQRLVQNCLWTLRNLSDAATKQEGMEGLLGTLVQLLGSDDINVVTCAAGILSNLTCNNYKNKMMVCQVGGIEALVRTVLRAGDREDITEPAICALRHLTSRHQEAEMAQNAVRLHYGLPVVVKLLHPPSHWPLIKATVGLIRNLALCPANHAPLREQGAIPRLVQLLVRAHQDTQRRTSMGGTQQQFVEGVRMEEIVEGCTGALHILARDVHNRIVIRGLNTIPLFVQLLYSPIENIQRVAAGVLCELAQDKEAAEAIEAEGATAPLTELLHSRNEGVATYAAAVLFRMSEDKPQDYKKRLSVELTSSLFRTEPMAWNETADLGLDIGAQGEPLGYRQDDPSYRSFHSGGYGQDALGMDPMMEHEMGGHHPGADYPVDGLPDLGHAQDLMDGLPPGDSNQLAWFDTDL
The experiment in a line: Inhibition of beta-catenin in human HCT116 cells assessed as reduction in axin2 mRNA expression. Type of data set: cell-based.

The next data set concerns MCF7. The experiment in a line: Antiproliferative activity against human MCF7 cells up to 20 uM incubated for 72 hrs by MTT assay. Type of data set: functional, cell-based. In general terms: Tetrazolium dyes change colour on reduction, which living cells bring about.
Data set [5] relates to SW480. The experiment in a line: Induction of apoptosis in human SW480 cells at 25 uM incubated for 48 hrs by Annexin V/propidium iodide-staining based flow cytometric analysis relative to control. Type of data set: functional. Background: A flow cytometer gives signals particle by particle.
Data set [6] deals with T1, Catenin beta-1 (Homo sapiens). The experiment in a line: Inhibition of beta-catenin in human SW480 cells assessed as reduction in axin2 mRNA expression. The class given is cell-based.
The target is the same in data set [7]. The experiment in a line: Inhibition of beta-catenin in human HCT116 cells assessed as reduction in axin2 protein expression. Type of data set: cell-based.
For data set [8] the target is unchanged. The experiment in a line: Inhibition of beta-catenin in human HCT116 cells assessed as reduction in myc mRNA expression. The class given is cell-based.
Data set [9] has the same target. The experiment in a line: Inhibition of beta-catenin in human SW480 cells assessed as reduction in LGR5 mRNA expression. The class given is cell-based.
Data set [10] has as its system SW480. The experiment in a line: Antiproliferative activity against human SW480 cells incubated for 72 hrs by MTT assay relative to control. Type of data set: functional.
The test system of data set [11] is SW480. The experiment in a line: Antiproliferative activity against human SW480 cells incubated for 72 hrs by MTT assay. Type of data set: functional, cell-based.
Data set [12] is described as follows: Half life in human serum at 100 uM measured up to 24 hrs by RP-HPLC analysis. The class given is ADME, cell-free.
Data set [13] deals with T1, Catenin beta-1 (Homo sapiens). The experiment in a line: Inhibition of beta-catenin in human SW480 cells assessed as reduction in LGR5 protein expression. Type of data set: cell-based.
Data set [14] has the same target. The experiment in a line: Inhibition of beta-catenin in human SW480 cells assessed as reduction in myc mRNA expression. The class given is cell-based.
Data set [15] shares this target. The experiment in a line: Inhibition of beta-catenin in human HCT116 cells assessed as reduction in LGR5 protein expression. Type of data set: cell-based.
For data set [16] the target is unchanged. The experiment in a line: Inhibition of beta-catenin in human HCT116 cells assessed as reduction in LGR5 mRNA expression. The class given is cell-based.
Data set [17] has the same target. The experiment in a line: Inhibition of beta-catenin in human HCT116 cells assessed as reduction in myc protein expression. Type of data set: cell-based.
The target is the same in data set [18]. The experiment in a line: Inhibition of beta-catenin in human SW480 cells assessed as reduction in axin2 protein expression. Type of data set: cell-based.
Data set [19] has the same target. The experiment in a line: Inhibition of beta-catenin in human SW480 cells assessed as reduction in myc protein expression. Type of data set: cell-based.
The subject of data set [20] is SW480. The experiment in a line: Induction of cell membrane disruption in human SW480 cells up to 50 uM incubated for 4 hrs by LDH assay relative to control. Type of data set: functional, cell-based.
For the next data set, the system named is DLD-1. The experiment in a line: Induction of apoptosis in human DLD1 cells at 25 uM incubated for 48 hrs by Annexin V/propidium iodide-staining based flow cytometric analysis relative to control. Type of data set: functional.
The test system of data set [21] is SW480. The experiment in a line: Antiproliferative activity against human SW480 cells at 20 uM incubated for 72 hrs by MTT assay. The class given is functional, cell-based.
In the next data set the target is T2, Catenin beta-1 (Mus musculus, UniProt Q02248).
T2 sequence (Q02248 whole entry): T1 sequence (whole entry) with P706A
The experiment in a line: Binding affinity to mouse GST tagged beta catenin (133 to 665 residues) expressed in Escherichia coli BL21 (DE3) cells incubated for 1 hr.

For orientation: IC50 means the concentration that inhibits the measured activity by half. As for `CC(=O)N[C@@H](CC(C)C)C(=O)N[C@H](C(=O)N[C@@H](C)C(=O)N[C@H]1CC(=O)NCCCC[C@@H](C(=O)N[C@@H](CCC(N)=O)C(=O)N[C@@H](CC(C)C)C(=O)N[C@H](C(=O)N[C@@H](CO)C(=O)NCCOCCOCC(=O)N[C@@H](CCCCNC(=O)CC[C@@H]2NC(=O)[C@@H](CCCNC(=N)N)NC(=O)[C@H](CCCNC(=N)N)NC(=O)[C@@H](CCCNC(=N)N)NC(=O)[C@H](CCCNC(=N)N)NC(=O)[C@H](Cc3ccc4ccccc4c3)NC(=O)[C@@H](Cc3ccccc3)NC2=O)C(N)=O)[C@@H](C)O)NC(=O)[C@H](Cc2c[nH]c3ccccc23)NC(=O)[C@H](Cc2ccc(O)cc2)NC(=O)[C@H](Cc2cnc[nH]2)NC1=O)[C@@H](C)O`, the Activity entry with HeLa [1] and in the data set with HeLa [3] was “Toxic” each time. Besides, the IC50 in data set [2] was > 20 µM. In addition, the result in the data set on SJSA-1 was inactive.

The EC50 is the concentration at which the effect is half-maximal. One may read the half-life as the time in which the quantity being followed falls by half. A higher half-life goes with slow loss. With `CC[C@H](C)[C@@H]1NC(=O)[C@@H](NC(=O)[C@H](CCC(=O)O)NC(=O)[C@@H]2CCCN2C(=O)[C@H](Cc2ccc(O)cc2)NC(=O)CNC(=O)CNC(C)=O)CC(=O)NCCCC[C@@H](C(=O)N[C@@H](Cc2cnc[nH]2)C(=O)N[C@@H](CC(C)C)C(=O)N[C@@H](CCC(N)=O)C(=O)N[C@@H](CCCNC(=N)N)C(=O)N[C@H](C(=O)N[C@H](C(=O)N[C@@H](CC(C)C)C(=O)NCCOCCOCC(=O)NCCOCCOCC(=O)N[C@@H](CNC(=O)CC[C@@H]2NC(=O)[C@@H](CCCNC(=N)N)NC(=O)[C@H](CCCNC(=N)N)NC(=O)[C@@H](CCCNC(=N)N)NC(=O)[C@H](CCCNC(=N)N)NC(=O)[C@H](Cc3ccc4ccccc4c3)NC(=O)[C@@H](Cc3ccccc3)NC2=O)C(N)=O)[C@@H](C)CC)C(C)C)NC(=O)[C@H](CC(=O)O)NC(=O)[C@H](CC(C)C)NC1=O` (I: Ac-GGYPEDILDKHLQRVIL[AEEA][AEEA][Dap]-NH2 / II: cyclo([2Nal]R[dR]R[dR]E[dF]); lactam I:6-I:10; amide I:20-II:6), the inhibition entry in [4], in data set [6], in data set [7], in [8], in data set [9] and in [13] was “Active” each time. Further, the inhibition entry in data set [14], in data set [15], in data set [16], in data set [17], in data set [18] and in [19] was “Active” each time. For the same molecule, the result in the data set with MCF7 and in the data set with SW480 [20] was inactive. Also, the Activity is 10% in the data set on SW480 [5], 60% with SW480 [10], “Dose-dependent effect” with SW480 [11] and 10% in the data set on DLD-1. Moreover, the midpoint of the response with SW480 [11] (SW480, 72 h), the EC50, lay at 1200 nM. This molecule had a half-life at 100 µM in [12] of 120 min.

Usually Kd stands for a measure of binding affinity in units of concentration. Low values mean tighter binding, high ones weaker binding. With `CC[C@H](C)[C@@H]1NC(=O)[C@@H](NC(=O)[C@H](CCC(=O)O)NC(=O)[C@@H]2CCCN2C(=O)[C@H](Cc2ccc(O)cc2)NC(=O)CNC(=O)CNC(=O)c2ccc(-c3c4ccc(=O)cc-4oc4cc(O)ccc34)c(C(=O)O)c2)CSCc2cccc(c2)CSC[C@@H](C(=O)N[C@@H](Cc2cnc[nH]2)C(=O)N[C@@H](CC(C)C)C(=O)N[C@@H](CCC(N)=O)C(=O)N[C@@H](CCCNC(=N)N)C(=O)N[C@H](C(=O)N[C@H](C(=O)N[C@@H](CC(C)C)C(N)=O)[C@@H](C)CC)C(C)C)NC(=O)[C@H](CC(=O)O)NC(=O)[C@H](CC(C)C)NC1=O` (X1-GGYPECILDCHLQRVIL-NH2; linker 6-10 via mXylylene), the outcome with SW480 [21] was Active. The molecule also registered a Kd on Catenin beta-1 of 18 nM.
